Data taken from patent US20100078393A1, “BIOCIDAL COMPOSITIONS AND METHODS OF USE” (priority 2008, published 2010).

Assays:
[1] = test system: oil field isolated anaerobic SRB consortium; assay: Biocidal efficacy against anaerobic SRB at 40° C., serial dilution method; assay type: cell-based, sulfate-reducing bacteria (SRB); conditions: for Concentration required for 3 log bacterial kill in 2 hours, used in combination: concentration of the labelled component; for Concentration required for 3 log bacterial kill in 2 hours, used alone / Concentration required for complete bacterial kill in 1 hour, used alone: ppm active; for Concentration required for complete bacterial kill in 1 hour, used alone: 40° C.
Protocol: (§1) The synergy indexes reported in the following examples are calculated using the following equation:
(§2) Synergy Index=Ca/CA+Cb/CB
(§3) A synergy index (SI) of 1 indicates additivity, a synergy index of less than 1 indicates synergy, and a synergy index greater than 1 indicates antagonism.
(§4) Various methods known to those skilled in the art can be used for evaluating biocidal efficacy. In some of the examples below, a serial dilution technique is used, which determines viable bacteria remaining after a treatment regimen. The method is based or adapted (e.g., for high temperature testing or for the presence of sulfide) from the methodology described in inventor's pending international application PCT/US08/075755, filed Sep. 10, 2008, which is incorporated herein by reference.
Inside an anaerobic chamber (Bactron III), a deaerated sterile salt solution (3.1183 g of NaCl, 1.3082 mg of NaHCO3, 47.70 mg of KCl, 72.00 mg of CaCl2, 54.49 mg of MgSO4, 172.28 mg of Na2SO4, 43.92 mg of Na2CO3 in 1 L water) is contaminated with an oil field isolated anaerobic SRB consortium at final bacterial concentrations of about 10^7 CFU/mL. […] […] Bacterial log reduction is then calculated.

[2] = test system: Klebsiella pneumoniae ATCC 8308; assay: Biocidal efficacy against aerobic bacteria, log reduction after 1 hour at 37° C.; assay type: cell-based; conditions: for Concentration required to achieve 3 log bacterial reduction in 1 hour, used in combination: active weight ratio 1:6; for Concentration required to achieve 3 log bacterial reduction in 1 hour, used alone: ppm active
Protocol: as §1, §2, §3, §4
(§5) A sterile NaCl solution (0.85%) is contaminated with bacterial inoculums at final bacterial concentration of approximately 10^6 CFU/ml. Then, biocide solution (single or in combination) is added into the bacterial suspension at various concentrations and immediately mixed well. After the mixtures are incubated at 37° C. for 1 hour, the viable bacteria left in the solution are determined. Bacterial log reduction is then calculated.

[3] = test system: Bacillus subtillus ATCC 8473; assay: as above; assay type: cell-based; conditions: for Concentration required to achieve 3 log bacterial reduction in 1 hour, used in combination: active weight ratio 1:6; for Concentration required to achieve 3 log bacterial reduction in 1 hour, used alone: ppm active
Protocol: as §1, §2, §3, §4, §5

[4] = test system: Enterobacter aerogenes ATCC 13048; assay: as above; assay type: cell-based; conditions: for Concentration required to achieve 3 log bacterial reduction in 1 hour, used in combination: active weight ratio 1:6; for Concentration required to achieve 3 log bacterial reduction in 1 hour, used alone: ppm active
Protocol: as §1, §2, §3, §4, §5

[5] = test system: Pseudomonas aeruginosa ATCC 10145; assay: as above; assay type: cell-based; conditions: for Concentration required to achieve 3 log bacterial reduction in 1 hour, used in combination: active weight ratio 1:6; for Concentration required to achieve 3 log bacterial reduction in 1 hour, used alone: ppm active
Protocol: as §1, §2, §3, §4, §5

[6] = test system: Pseudomonas putida ATCC 49128; assay: as above; assay type: cell-based; conditions: for Concentration required to achieve 3 log bacterial reduction in 1 hour, used in combination: active weight ratio 1:6; for Concentration required to achieve 3 log bacterial reduction in 1 hour, used alone: ppm active
Protocol: as §1, §2, §3, §4, §5

[7] = test system: Staphylococcus aureus ATCC 6538; assay: as above; assay type: cell-based; conditions: for Concentration required to achieve 3 log bacterial reduction in 1 hour, used in combination: active weight ratio 1:6; for Concentration required to achieve 3 log bacterial reduction in 1 hour, used alone: ppm active
Protocol: as §1, §2, §3, §4, §5

[8] = test system: Escherichia coli ATCC 11229; assay: as above; assay type: cell-based; conditions: for Concentration required to achieve 3 log bacterial reduction in 1 hour, used in combination: active weight ratio 1:6; for Concentration required to achieve 3 log bacterial reduction in 1 hour, used alone: ppm active
Protocol: as §1, §2, §3, §4, §5

[9] = concentration of the labelled component in glutaraldehyde + 7-ethyl-bicyclooxazolidine combination
[10] = concentration of the labelled component in glutaraldehyde + 4,4-dimethyl-oxazolidine combination

Structure (SMILES): CCC12COCN1COC2 [7-ethyl-bicyclooxazolidine, 5-ethyl-1-aza-3,7-dioxabicyclo[3.3.0]octane]
- Concentration required for 3 log bacterial kill in 2 hours, used in combination ([1]; glutaraldehyde:7-ethyl-bicyclooxazolidine weight ratio 1:1): 5.9 ppm
- Concentration required for 3 log bacterial kill in 2 hours, used in combination ([1]; glutaraldehyde:7-ethyl-bicyclooxazolidine weight ratio 1:2): 11.9 ppm
- Concentration required for 3 log bacterial kill in 2 hours, used in combination ([1]; glutaraldehyde:7-ethyl-bicyclooxazolidine weight ratio 1:5): 29.6 ppm
- Concentration required for 3 log bacterial kill in 2 hours, used in combination ([1]; glutaraldehyde:7-ethyl-bicyclooxazolidine weight ratio 1:10): 39.5 ppm
- Concentration required for 3 log bacterial kill in 2 hours, used in combination ([1]; glutaraldehyde:7-ethyl-bicyclooxazolidine weight ratio 1:20): 52.7 ppm
- Concentration required for 3 log bacterial kill in 2 hours, used in combination ([1]; glutaraldehyde:7-ethyl-bicyclooxazolidine weight ratio 2:1): 4.4 ppm
- Concentration required for 3 log bacterial kill in 2 hours, used in combination ([1]; glutaraldehyde:7-ethyl-bicyclooxazolidine weight ratio 5:1): 1.2 ppm
- Concentration required for 3 log bacterial kill in 2 hours, used in combination ([1]; glutaraldehyde:7-ethyl-bicyclooxazolidine weight ratio 10:1): 0.6 ppm
- Concentration required for 3 log bacterial kill in 2 hours, used in combination ([1]; glutaraldehyde:7-ethyl-bicyclooxazolidine weight ratio 20:1): 0.3 ppm
- Concentration required for 3 log bacterial kill in 2 hours, used alone [1]: >2025 ppm
- Concentration required to achieve 3 log bacterial reduction in 1 hour, used in combination [2, 9]: 74.2 ppm
- Concentration required to achieve 3 log bacterial reduction in 1 hour, used alone [2]: 197.8 ppm
- Concentration required to achieve 3 log bacterial reduction in 1 hour, used in combination [3, 9]: 74.2 ppm
- Concentration required to achieve 3 log bacterial reduction in 1 hour, used alone [3]: 296.6 ppm
- Concentration required to achieve 3 log bacterial reduction in 1 hour, used in combination [4, 9]: 111.3 ppm
- Concentration required to achieve 3 log bacterial reduction in 1 hour, used alone [4]: 296.6 ppm
- Concentration required to achieve 3 log bacterial reduction in 1 hour, used in combination [5, 9]: 111.3 ppm
- Concentration required to achieve 3 log bacterial reduction in 1 hour, used alone [5]: 296.6 ppm
- Concentration required to achieve 3 log bacterial reduction in 1 hour, used in combination [6, 9]: 111.3 ppm
- Concentration required to achieve 3 log bacterial reduction in 1 hour, used alone [6]: 296.6 ppm
- Concentration required to achieve 3 log bacterial reduction in 1 hour, used in combination [7, 9]: 111.3 ppm
- Concentration required to achieve 3 log bacterial reduction in 1 hour, used alone [7]: 296.6 ppm
- Concentration required to achieve 3 log bacterial reduction in 1 hour, used in combination [8, 9]: 74.2 ppm
- Concentration required to achieve 3 log bacterial reduction in 1 hour, used alone [8]: 296.6 ppm

Structure (SMILES): O=CCCCC=O [Glutaraldehyde]
- Concentration required for 3 log bacterial kill in 2 hours, used alone [1]: 8.9 ppm
- Concentration required for complete bacterial kill in 1 hour, used alone [1]: 26.3 ppm
- Concentration required to achieve 3 log bacterial reduction in 1 hour, used in combination [2, 10]: 12.4 ppm
- Concentration required to achieve 3 log bacterial reduction in 1 hour, used in combination [2, 9]: 12.4 ppm
- Concentration required to achieve 3 log bacterial reduction in 1 hour, used alone [2]: 44.5 ppm
- Concentration required to achieve 3 log bacterial reduction in 1 hour, used in combination [3, 10]: 18.6 ppm
- Concentration required to achieve 3 log bacterial reduction in 1 hour, used in combination [3, 9]: 12.4 ppm
- Concentration required to achieve 3 log bacterial reduction in 1 hour, used alone [3]: 44.5 ppm
- Concentration required to achieve 3 log bacterial reduction in 1 hour, used in combination [4, 10]: 18.6 ppm
- Concentration required to achieve 3 log bacterial reduction in 1 hour, used in combination [4, 9]: 18.6 ppm
- Concentration required to achieve 3 log bacterial reduction in 1 hour, used alone [4]: 44.5 ppm
- Concentration required to achieve 3 log bacterial reduction in 1 hour, used in combination [5, 10]: 18.6 ppm
- Concentration required to achieve 3 log bacterial reduction in 1 hour, used in combination [5, 9]: 18.6 ppm
- Concentration required to achieve 3 log bacterial reduction in 1 hour, used alone [5]: 44.5 ppm
- Concentration required to achieve 3 log bacterial reduction in 1 hour, used in combination [6, 10]: 18.6 ppm
- Concentration required to achieve 3 log bacterial reduction in 1 hour, used in combination [6, 9]: 18.6 ppm
- Concentration required to achieve 3 log bacterial reduction in 1 hour, used alone [6]: 44.5 ppm
- Concentration required to achieve 3 log bacterial reduction in 1 hour, used in combination [7, 10]: 18.6 ppm
- Concentration required to achieve 3 log bacterial reduction in 1 hour, used in combination [7, 9]: 18.6 ppm
- Concentration required to achieve 3 log bacterial reduction in 1 hour, used alone [7]: 44.5 ppm
- Concentration required to achieve 3 log bacterial reduction in 1 hour, used in combination [8, 10]: 18.6 ppm
- Concentration required to achieve 3 log bacterial reduction in 1 hour, used in combination [8, 9]: 12.4 ppm
- Concentration required to achieve 3 log bacterial reduction in 1 hour, used alone [8]: 44.5 ppm

Structure (SMILES): CC1(C)COCN1 [4,4-dimethyl-oxazolidine]
- Concentration required for complete bacterial kill in 1 hour, used alone [1]: >1600.0 ppm
- Concentration required to achieve 3 log bacterial reduction in 1 hour, used in combination [2, 10]: 74.2 ppm
- Concentration required to achieve 3 log bacterial reduction in 1 hour, used alone [2]: 197.8 ppm
- Concentration required to achieve 3 log bacterial reduction in 1 hour, used in combination [3, 10]: 111.3 ppm
- Concentration required to achieve 3 log bacterial reduction in 1 hour, used alone [3]: 296.6 ppm
- Concentration required to achieve 3 log bacterial reduction in 1 hour, used in combination [4, 10]: 111.3 ppm
- Concentration required to achieve 3 log bacterial reduction in 1 hour, used alone [4]: 296.6 ppm
- Concentration required to achieve 3 log bacterial reduction in 1 hour, used in combination [5, 10]: 111.3 ppm
- Concentration required to achieve 3 log bacterial reduction in 1 hour, used alone [5]: 296.6 ppm
- Concentration required to achieve 3 log bacterial reduction in 1 hour, used in combination [6, 10]: 111.3 ppm
- Concentration required to achieve 3 log bacterial reduction in 1 hour, used alone [6]: 296.6 ppm
- Concentration required to achieve 3 log bacterial reduction in 1 hour, used in combination [7, 10]: 111.3 ppm
- Concentration required to achieve 3 log bacterial reduction in 1 hour, used alone [7]: 296.6 ppm
- Concentration required to achieve 3 log bacterial reduction in 1 hour, used in combination [8, 10]: 111.3 ppm
- Concentration required to achieve 3 log bacterial reduction in 1 hour, used alone [8]: 197.8 ppm
